Key:
[1] = tested on: MCF7 tumors; assay: MCF7 xenograft efficacy; type: in vivo, mice; settings: […]60 day E2 pellets; GDC-0810 100 mg/kg/day p.o.; fulvestrant clinically relevant dose (50 then 25 mg/kg s.c.) and 200 mg/kg 3 times per week; 28 days
[2] = tested on: HCI-003 patient derived xenograft tumors; assay: HCI-003 patient derived xenograft efficacy; type: in vivo, mice; settings: for Tumor growth response, HCI-003 PDX: 1 mg E2 beeswax pellets, GDC-0810 10 and 100 mg/kg/day p.o., fulvestrant 200 mg/kg 3x/week s.c., 43 days
Source text: Like MCF7, HCI-003 tumors are ER+, E2 dependent and tamoxifen sensitive (Figure 4—figure supplement 1C). […] Lack of efficacy in this ER-negative model is consistent with the GDC-0810 mechanism of action being selectively mediated through ER.
The HCI-003 model was established at the University of Utah, Huntsman Cancer Center via direct implantation of both primary tumor material into immune compromised mice ([DeRose et al., 2011]). HCI-003 is wild-type at the ESR1 ligand binding domain. Exogenous estradiol is required for robust growth of this patient derived tumor line, and is supplied in the form of estradiol impregnated beeswax pellets. Tumor fragments obtained from the Huntsman Cancer Center were surgically implanted into the cleared mammary fat pad of 19 day old female NOD.CB17-Prkdc^scid/NcrCrl mice (Charles River Laboratories). The right mammary fat pad of recipient animals was exposed by a 1 cm incision on the ventral mid-line at the level of the fourth mammary. The blood vessels were cauterized and the fat pad blunt dissected from the abdominal wall and skin. Tumor fragments were excised from donor animals, chopped into fragments approximately 8 mm^3 (2 × 2 × 2 mm), implanted in the region of the cleared mammary fat pad, and the incision was closed with wound clips. Estradiol impregnated beeswax pellets were implanted subcutaneously into the interscapular space of recipient animals on the day of tumor implant. Recipient animals were ovariectomized 19 days after tumor fragment implant. One group of animals was designated as a control for estradiol independent tumor growth (Vehicle-E2) and the estradiol impregnated pellets were excised on the first day of dosing. All mice were housed and maintained according to the animal-use guidelines of the Institutional Animal Care and Use Committee (IACUC), conforming to California State legal and ethical practices.

[3] = tested on: WHIM20 tumors; type: in vivo, mice; settings: no E2 pellets; GDC-0810 100 mg/kg/day; tamoxifen 60 mg/kg/day; fulvestrant 50 mg/kg days 1, 3 and 7, 25 mg/kg weekly thereafter; 35 days
Source text: Figure 8. […] (B) Gene expression analysis of WHIM20 tumors after 4 days of dosing, harvested 8 hr after the final dose. […] (E) WHIM20 tumors were implanted in mice without supplemental 17β-estradiol pellets.
The WHIM20 patient derived xenograft model (WHIM20) was established via direct implantation of metastatic tumor material into immune compromised mice at Washington University in St. Louis ([Li et al., 2013]).
Tumors were established from fragments obtained from Washington University by subcutaneous implantation via 10G trocar into the right flank of 6–7 week old female NOD.CB17-Prkdc^scid/NcrCrl mice (Charles River Laboratories) and NOD.Cg-Prkdc^scid Il2rg^tm1Wjl/SzJ mice (Jackson Laboratories). Tumor line was propagated by serial transplantation. Animals were ovariectomized prior to initiation of treatment.

[4] = biological target: T1, MR (Homo sapiens, UniProt P08235); assay: MR transcriptional reporter assay, agonist mode (HEPG2 cells); type: cell-based; settings: % of maximal aldosterone-stimulated activity
T1 construct: expressed in transfected cells; host or cells: HEPG2
T1 sequence (P08235 1-984): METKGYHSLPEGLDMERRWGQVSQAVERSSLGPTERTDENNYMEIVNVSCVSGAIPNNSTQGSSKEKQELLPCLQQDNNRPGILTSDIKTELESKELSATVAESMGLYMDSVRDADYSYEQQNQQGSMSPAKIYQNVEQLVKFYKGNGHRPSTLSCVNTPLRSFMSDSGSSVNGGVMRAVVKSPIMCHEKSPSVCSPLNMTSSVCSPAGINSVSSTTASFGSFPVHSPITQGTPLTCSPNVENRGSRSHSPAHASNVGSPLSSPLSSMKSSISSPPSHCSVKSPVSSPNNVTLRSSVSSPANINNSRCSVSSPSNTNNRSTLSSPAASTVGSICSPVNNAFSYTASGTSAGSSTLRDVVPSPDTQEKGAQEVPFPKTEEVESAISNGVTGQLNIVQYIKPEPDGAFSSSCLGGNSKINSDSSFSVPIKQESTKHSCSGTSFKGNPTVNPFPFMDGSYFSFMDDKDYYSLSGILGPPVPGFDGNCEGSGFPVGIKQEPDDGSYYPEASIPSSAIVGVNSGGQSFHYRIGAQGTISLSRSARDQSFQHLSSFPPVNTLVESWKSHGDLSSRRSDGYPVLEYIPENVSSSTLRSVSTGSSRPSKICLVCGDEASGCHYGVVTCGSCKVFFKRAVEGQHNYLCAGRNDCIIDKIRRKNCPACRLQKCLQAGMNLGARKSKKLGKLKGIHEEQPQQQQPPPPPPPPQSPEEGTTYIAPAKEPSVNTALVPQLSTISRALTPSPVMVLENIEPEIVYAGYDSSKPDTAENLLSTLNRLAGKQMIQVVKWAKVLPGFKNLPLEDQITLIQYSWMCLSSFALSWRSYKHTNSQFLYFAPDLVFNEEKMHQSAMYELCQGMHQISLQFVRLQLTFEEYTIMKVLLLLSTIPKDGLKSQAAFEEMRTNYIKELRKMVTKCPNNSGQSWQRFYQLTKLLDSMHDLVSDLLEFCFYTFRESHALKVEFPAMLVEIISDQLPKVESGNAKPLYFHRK
Experimental: Transcriptional assays were performed by seeding 100 μL of cells at a density of 250,000 cells/mL into 96-well cell culture plates in RPMI 1640 supplemented with 5% charcoal-stripped serum and allowed to attach overnight. […] Triplicate transfections were performed using 418 ng reporter vector (2X PRE-Luciferase for PR-A and PR-B, MMTV-Luciferase for MR), 50 ng CMVpRL (normalization vector), 10 ng NHR expression vector (CMX-PR-A, pCDNA-PR-B or 6R-MR), and 0.7 μL lipofectin. […] The final agonist concentration used in the antagonist assays was 1 nM. Following 24 hr incubation, the medium was removed and the cells were lysed in 40 μL of lysis buffer (25 mM Tris Phosphate, 2 mM CDTA, 10% Glycerol, 0.5% Triton X-100, 2 mM DTT). Firefly luciferase activity was measured immediately following the addition of 40 μL luciferase buffer (20 mM tricine, 0.1 mM EDTA, 1.07 mM (MgCO3)4 Mg(OH)2· 5H2O, 2.67 mM MgSO4, 33.3 mM DTT, 270 μM Coenzyme A, 470 μM luciferin, 530 μM ATP).

## C[C@]12CC[C@@H]3c4ccc(O)cc4C[C@@H](CCCCCCCCC[S+]([O-])CCCC(F)(F)C(F)(F)F)[C@H]3[C@@H]1CC[C@@H]2O (stereo partly drawn) [Fulvestrant]
[1]
  Tumor growth response, MCF7 xenograft: only modest tumor growth inhibition
[2]
  Tumor growth response, HCI-003 PDX: induced tumor regression
[2]; tamoxifen 60 mg/kg/day orally, fulvestrant 200 mg/kg 3x/week, 38 days
  Anti-tumor activity, HCI-003 PDX (Figure 4—figure supplement 1C): display anti-tumor activity
[3]
  Tumor growth response, WHIM20 PDX: tumor growth inhibition

## CC/C(=C(/c1ccc(/C=C/C(=O)O)cc1)c1ccc2[nH]ncc2c1)c1ccc(F)cc1Cl [GDC-0810]
[4]
  Emax: 0.09 ± 0.16%
[1]
  Tumor growth response, MCF7 xenograft: caused tumor regressions
[2]
  Tumor growth response, HCI-003 PDX: drove tumor stasis
[3]
  Tumor growth response, WHIM20 PDX: induced tumor stasis

## CC/C(=C(\c1ccc(O)cc1)c1ccc(OCCN(C)C)cc1)c1ccccc1 [4-OH Tam, 4-hydroxytamoxifen]
[4]
  Emax: 0%

Reference: publication PMC4961458 (eLife, 2016)
